Results published in patent publication US20250313574A1, “SIALIC ACID DERIVATIVES AND METHODS OF USING SAME” (EISAI R&D MANAGEMENT CO., LTD., priority 2022, published 2025).

Each compound was assayed against Recombinant human CD33 protein (Homo sapiens (Human), UniProt P20138) (assay: CD33 competitive binding assay for HTS drug screen (fluorescent multivalent sialic acid probe)).
Recombinant human CD33 protein, sequence (P20138 18-259): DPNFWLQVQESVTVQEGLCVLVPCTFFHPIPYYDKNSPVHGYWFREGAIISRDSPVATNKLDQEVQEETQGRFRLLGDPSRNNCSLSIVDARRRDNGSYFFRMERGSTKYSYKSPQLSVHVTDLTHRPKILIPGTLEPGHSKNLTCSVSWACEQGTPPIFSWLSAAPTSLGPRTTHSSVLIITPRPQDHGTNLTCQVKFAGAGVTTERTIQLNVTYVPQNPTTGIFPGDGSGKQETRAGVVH
Procedure: This is a competitive binding assay that uses recombinant CD33 immobilized to a plate and a fluorescently-labeled multivalent sialic acid analog as a probe. Binding of drug to the site on CD33 to which sialic acid binds is detected by reduced binding of the fluorescent probe. Recombinant human CD33 protein (for example Acro Biosystems cat #CD3-H5257) was added at a concentration of 10 μg/ml in 20 mM acetate buffer (pH5.5) to a black plastic plate (Corning 4510) and allowed to incubate overnight at 4° C. The next day, the wells were washed 3 times with PBS containing 0.02% Tween-20. This was followed by a 30-minute incubation with PBS containing 0.2% Tween-20 and 0.5% BSA to block non-specific binding to the well. This buffer is removed and replaced with 10 μl of the same buffer, which is also used as the assay buffer. The fluorescent multivalent sialic acid probe was prepared as a 4× concentration as follows. A biotinylated sialic acid analog A-375 was mixed with biotin-4-Fluorescein isothiocyanate (biotin-4-FITC) at a 3:1 molar ratio with final concentrations (4× stock) of 60 μM A-375 and 20 μM biotin-4-FITC. After these were mixed, 20 μM of neutravidin was added, which should form complexes consisting of neutravidin, fluorescein and sialic acid with an average complex consisting of 1 neutravidin, 1 FITC and 3 sialic acid analogs. The multimerization of the sialic acid analog is critical to the assay and improves the affinity of the sialic acid analog several orders of magnitude. A test compound, for example A-001, is added at 5 μl to the 10 μl assay buffer already in the well. After a brief incubation, 5 μl of the 4× stock solution of sialic acid complexes was added. The final concentration of the complexes was therefore 5 μM neutravidin, 15 μM A-375 and 5 μM FITC. The plate was incubated at room temperature for 30 mins and then washed with PBS containing 0.2% Tween-20. Binding of the sialic acid complex is very stable, with an off-rate of several days. Bound complex was then detected using a standard plate reader to quantify FITC fluorescence.
Compound Cc1cc(C(=O)NCC(O)C[C@@H]2O[C@@](C/C=C/C3CCN(C(=O)OC(C)(C)C)C3)(C(=O)O)CCC2C)cc2cc[nH]c12 (single isomer, unassigned) [A-212] has an EC50 of 17.4 µM. In the case of CC(=O)N[C@H]1[C@H]([C@H](O)[C@H](O)CNC(=O)c2cc(C)c(O)c(C)c2)O[C@@](CCN2CCOC[C@@]23CCN(C(=O)COCC(F)(F)F)C3)(C(=O)O)C[C@@H]1O [A-088], the EC50 is reported as 1.95 µM. For Cc1cc(C(=O)NC[C@@H](O)C[C@H]2CCC[C@](CCN3CCOC[C@@]34CCN(C(=O)OC(C)(C)C)C4)(C(=O)O)O2)cc(C)c1O [A-208], the EC50 was greater than 20 µM. With CC(=O)N[C@H]1[C@H]([C@H](O)[C@H](O)CNC(=O)c2cc(C)c(O)c(C)c2)O[C@@](CCN2CCOC[C@@]23CCN(C(=O)N[C@H](C)c2ccc(Br)cc2)C3)(C(=O)O)C[C@@H]1O [A-056] the EC50 was 0.153 µM. Cc1cc(C(=O)NCC(O)C[C@@H]2O[C@@](C/C=C/C3CCN(C(=O)OC(C)(C)C)C3)(C(=O)O)CCC2C)cc2cc[nH]c12 (single isomer, unassigned) [A-211] was tested, and the EC50 was 15.2 µM. Work on COC(C)(C)C(=O)N1CC[C@@]2(COCCN2CC[C@]2(C(=O)O)C[C@H](O)[C@@H](NC(C)=O)[C@H]([C@H](O)[C@H](O)CNC(=O)c3cc(C)c(O)c(C)c3)O2)C1 [A-085] yielded an EC50 of 1.28 µM. CC(=O)N[C@H]1[C@H]([C@H](O)[C@H](O)CNC(=O)c2cc(C)c(O)c(C)c2)O[C@@](CCN2CCOC[C@@]23CCN(c2cc(N(C)C)ccn2)C3)(C(=O)O)C[C@@H]1O [A-041] was tested, and the EC50 was 0.58 µM. In the case of CC(=O)N[C@H]1[C@H]([C@H](O)[C@H](O)CNC(=O)c2cc(C)c(O)c(C)c2)O[C@@](C[C@@H]2COC[C@@]3(CCN(C(=O)OC(C)(C)C)C3)N2)(C(=O)O)C[C@@H]1O [A-226, (2R,4S,5R,6R)-5-acetamido-2-(((5S,7R)-2-(tert-butoxycarbonyl)-9-oxa-2,6-diazaspiro[4.5]decan-7-yl)methyl)-6-((1R,2R)-1,2-dihydroxy-3-(4-hydroxy-3,5-dimethylbenzamido)propyl)-4-hydroxytetrahydro-2H-pyran-2-carboxylic acid], the EC50 is reported as 3.87 µM. Work on CC(=O)N[C@H]1[C@H]([C@H](O)[C@H](O)CNC(=O)c2cc(C)c(O)c(C)c2)O[C@@](CCN2CCN(C)C[C@]23CCN(C(=O)NC(C)(C)C)C3)(C(=O)O)C[C@@H]1O [A-106] yielded an EC50 of 1.95 µM. CC(=O)N[C@H]1[C@H]([C@H](O)[C@H](O)CNC(=O)c2cc(C)c(O)c(C)c2)O[C@@](CCN2CCOC[C@@]23CCN(C(=O)COC(C)(C)C)C3)(C(=O)O)C[C@@H]1O [A-090] showed an EC50 of 3.12 µM. C=C(C)c1ccc(C(C)(C)NC(=O)N2CC[C@@]3(COCCN3CC[C@]3(C(=O)O)C[C@H](O)[C@@H](NC(C)=O)[C@H]([C@H](O)[C@H](O)CNC(=O)c4cc(C)c(O)c(C)c4)O3)C2)cc1 [A-046] was tested, and the EC50 was 0.063 µM. Compound CC(=O)N[C@H]1[C@H]([C@H](O)[C@H](O)CNC(=O)c2ccc3sc(C)nc3c2)O[C@@](CCN2CCOC[C@@]23CCN(C(=O)OC(C)(C)C)C3)(C(=O)O)C[C@@H]1O [A-131] has an EC50 of 0.024 µM. For CC(=O)N[C@H]1[C@H]([C@H](O)[C@H](O)CNC(=O)c2cc(C)c(O)c(C)c2)O[C@@](CCN2CCOC[C@@]23CCN(C(=O)c2ccc4[nH]cnc4c2)C3)(C(=O)O)C[C@@H]1O [A-094], the EC50 was 2.33 µM. With CC(=O)N[C@H]1[C@H]([C@H](O)[C@H](O)CNC(=O)c2cc(C)c(O)c(C)c2)O[C@@](CCN2CCOC[C@@]23CCN(C(=O)COCC(C)C)C3)(C(=O)O)C[C@@H]1O [A-083] the EC50 was 1 µM. Compound CC(=O)N[C@H]1[C@H]([C@H](O)[C@H](O)CNC(=O)c2cc(C)c(O)c(C)c2)O[C@@](CCN2CCC23CCN(C(=O)OC(C)(C)C)C3)(C(=O)O)C[C@@H]1O (stereo partly shown) [A-018] has an EC50 of 0.162 µM. In the case of CC(=O)N[C@H]1[C@H]([C@H](O)[C@H](O)CNC(=O)c2cc(C)c(O)c(C)c2)O[C@@](CCN2CCOC[C@@]23CCN(C(=O)COC2CCCC2)C3)(C(=O)O)C[C@@H]1O [A-092], the EC50 is reported as 2.05 µM.
